Conditions: in vivo
Procedure: The primary objectives were to assess iron uptake and ferric maltol pharmacokinetics. Serum iron and TSAT provided measures of iron uptake. In adults, dissociated maltol undergoes rapid glucuronidation and is cleared in urine as maltol glucuronide (36); therefore, in this study, plasma maltol glucuronide was measured to confirm the rate of clearance in children.
Sparse pharmacokinetic blood sampling was performed at baseline before the morning dose and at prespecified collection windows 0.5–6 hours after the morning dose on days 1 and 10, giving 3 to 6 samples per time point. The post-dose pharmacokinetic sample collection windows were 0.5–<1, 1–<2, 2–<3, 3–<4, and 4–<6 hours, with patients assigned to post-dose pharmacokinetic blood sampling schedules in sequential order at randomization. Individuals had the same schedule on days 1 and 10. Plasma maltol glucuronide and serum iron and TSAT were measured at each time point to calculate standard pharmacokinetic parameters.
The observed values for plasma maltol glucuronide and serum iron and TSAT were summarized by dose group and visit for the ITT population, as were changes from baseline in serum iron and TSAT. The ITT population was also used in the population pharmacokinetic analysis. […]

Cc1occc(=O)c1O[C@@H]1O[C@H](C(=O)O)[C@@H](O)[C@H](O)[C@H]1O [maltol glucuronide]
Cmax and AUC of maltol glucuronide: dose dependence: dose-dependent
